{"source": "patent US20030092774A1", "about": "“Methods for treating neoplastic, angiogenic, vascular, fibroblastic, and/or immunosuppressive iregularities of the eye and/or joint via administration of combretastatin based medicaments, and iontophoretic devices for delivering combretastatin based medicaments” (priority 2001, published 2003)", "origin": "cited, not measured here", "data": [{"smiles": "COc1ccc(/C=C\\c2cc(OC)c(OC)c(OC)c2)cc1O", "note": "[combretastatin-A4, (cis)-1-(3′,4′,5′,-trimethoxyphenyl)-2-(3 ″-hydroxy-4″-methoxyphenyl)ethene]", "values": [{"measurement": "solubility in aqueous solution", "result": "practically insoluble"}]}]}
